The source of these data is US12410124B2 (priority 2019, dated 2025).

For one experiment, the system named is hippocampus GFAP. In words: Number of hippocampus astrocytes with GFAP positive expression in MPTP Parkinson's disease model mouse (immunohistochemistry). The format is in vivo. Conditions: for Positive cell number (astrocytes with GFAP positive expression): hippocampus, MPTP Parkinson's disease model mouse, immunohistochemistry. The method, then:
(§1) Neurotoxins can be used to establish PD animal models. Currently, 1-methyl-4-phenyl-1,2,3,6-tetrahydropyridine (MPTP) is the sole synthetic toxin which is recognized to induce PD symptoms in human and non-human primates and in mice. Using MPTP subacute modeling method, C57BL/6J male mice were intraperitoneally injected with MPTP 30 mg/kg, once a day for 5 consecutive days. The experiment animals were divided into blank control group, MPTP model group, and compound treatment group. For the […] compound treatment group, the compound was administrated by gavage for 21 consecutive days after the completion of modeling; for the MPTP model group, the normal saline was administrated by gavage for 21 consecutive days after the completion of modeling; and for the blank control group, the normal saline was first intraperitoneally injected for 5 days, and then administrated by gavage for 21 days.
(§2) Neuron-glial cell network homeostasis disorder is an important factor for the selective and progressive death of substantia nigra dopaminergic neurons in PD. In the neurotoxic effect of MPTP, the excessive activations of microglial cells and astrocytes produce a variety of inflammatory cytokines and reactive oxygen species (ROS). These inflammatory factors and ROS amplify their respective toxicities and mediate malignant feedback loop, causing a cascade inflammation response and aggravating the pathological process of PD. CD11b and GFAP are the marker proteins for activations of microglial cells and astrocytes, respectively. Therefore, the effect of the target compounds on the activations of the microglial cells and astrocytes in the substantia nigra, hippocampus, and midbrain areas of MPTP-induced PD mice can be investigated, to explore the mechanism of the anti-PD effect of the target compounds by inhibiting the neuroinflammation.
(§3) Half of experiment mice in each group were taken to separate the midbrain after perfusion and fixation. The tissue was trimmed, and the hippocampus area was taken to prepare paraffin sections. The GFAP immunohistochemical staining was performed for the statistics of the change in the number of astrocytes with GFAP positive expression. The experiment included blank control group, MPTP model group, positive control group (caffeic acid phenethyl ester, CAPE), prototype control group (styryl sulfone compounds 3B, 3C, 3D, and 3G, whose structures are shown as above), and target compound group.

The subject of another experiment is substantia nigra p-α-s. In words: Substantia nigra p-α-s protein expression in MPTP Parkinson's disease model mouse (immunofluorescence). In kind it is in vivo. Conditions: percentage of mean intensity of blank control group, gavage 21 days after MPTP modeling. Here is the method:
as §1
Alpha-synuclein is an “unfolded protein” in its natural state. It exists in a monomeric form, and participates in the physiological functions such as the release of neurotransmitters, the establishment of synaptic junctions, and the regulation of synaptic plasticity. Under pathological conditions, more than 90% of alpha-synuclein is phosphorylated at serine of position 129 and converted into phosphorylated alpha-synuclein (p-α-s), thereby forming Lewy bodies. The formation of Lewy bodies is one of the main pathological manifestations and pathological mechanisms for Parkinson's disease, and plays an important role in the formation and development of PD. The detection of the p-α-s expression in the midbrain and substantia nigra of PD model mice can evaluate the neuroprotective activity of the compound.
Half of experiment mice in each group were taken to separate the midbrain after perfusion and fixation. The tissue was trimmed, and the substantia nigra-striatum area was taken to prepare paraffin sections. The p-α-s immunofluorescence staining was performed in the brain sections of mice in each group. […] The experiment included blank control group, MPTP model group, positive control group (caffeic acid phenethyl ester, CAPE), prototype control group (styryl sulfone compounds 3B, 3C, 3D, and 3G, whose structures are shown as above), and target compound group.

The test system of a further experiment is midbrain pp38. In words: Midbrain pp38 protein expression in MPTP Parkinson's disease model mouse (western-blotting). The format is in vivo. Conditions: midbrain total protein, GAPDH internal reference, gavage 21 days after MPTP modeling. The method, then: as §1
The p38 mitogen-activated protein kinase (p38 MAPK) is expressed in both neurons and glial cells, and is the intersection point of neuron-glial cell network information regulations. The activation of p38 signaling pathway is an important initiator of neuronal degeneration, which continuously induces the apoptosis of dopaminergic neurons in multiple ways. It has become a research hotspot for the treatment of PD. Studies have shown that the protective mechanism of CAPE against the death of primary cultured cerebellar granule neurons induced by glutamate lies in inhibiting the activation of p38 phosphorylation and in turn inhibiting the activation of the caspase 3 apoptotic pathway to prevent neuronal apoptosis. Therefore, the MPTP-induced PD mouse model can be used to investigate the inhibitory effect of the target compounds on the activation of p38 phosphorylation on the overall animal level.
Half of experiment mice in each group were taken to extract the total midbrain protein, and the change in the midbrain phosphorylated p38 protein expression was determined by western-blotting using GAPDH as the internal reference. The experiment included blank control group, MPTP model group, positive control group (caffeic acid phenethyl ester, CAPE), prototype control group (styryl sulfone compounds 3B, 3C, 3D, and 3G, whose structures are shown as above), and target compound group.

In experiment [1] the target is acetylcholinesterase (AchE) (Homo sapiens, UniProt P22303). In words: biochemical. Here is the method:
The modified Ellman method was used to determine the inhibitory activity on acetylcholinesterase. The principle lies in that acetylthiocholine iodide is decomposed under the action of acetylcholinesterase (AchE) to generate thiocholine. The thiocholine is quickly reacted with DTNB as the colour-developing agent to generate a yellow substance with light absorption at 405 nm. To a 96-well microplate, 50 μl of enzyme reaction buffer, 125 μl of DTNB (3 mM), 25 μl of test sample or positive control drug, and 25 μl of AchE (0.2 U/ml) were successively added. After incubation at room temperature for 5 min, 25 μl of ATCI (15 mM) was added. After incubation at room temperature for 8 min, the absorbance value was determined at 405 nm with a microplate reader. A blank control group without enzyme (25 μl PBS instead of the sample to be tested) was also established.

Another experiment concerns substantia nigra CD11b. As to the kind of experiment: Number of substantia nigra microglial cells with CD11b positive expression in MPTP Parkinson's disease model mouse (immunohistochemistry). In kind it is in vivo. Conditions: for Positive cell number (microglial cells with CD11b positive expression): substantia nigra, MPTP Parkinson's disease model mouse, immunohistochemistry. The method, then:
as §1, §2
as §3, with “substantia nigra” for “hippocampus”, “CD11b” for “GFAP”, “microglial cells” for “astrocytes”

The mark [2] stands for this setting: acetylcholinesterase, modified Ellman method, read-out: IC50.

Molecules are shown by their SMILES. Where two headings read alike, the source gives them in different places.

acetylcholinesterase (AchE), sequence (P22303 32-614, species assumed): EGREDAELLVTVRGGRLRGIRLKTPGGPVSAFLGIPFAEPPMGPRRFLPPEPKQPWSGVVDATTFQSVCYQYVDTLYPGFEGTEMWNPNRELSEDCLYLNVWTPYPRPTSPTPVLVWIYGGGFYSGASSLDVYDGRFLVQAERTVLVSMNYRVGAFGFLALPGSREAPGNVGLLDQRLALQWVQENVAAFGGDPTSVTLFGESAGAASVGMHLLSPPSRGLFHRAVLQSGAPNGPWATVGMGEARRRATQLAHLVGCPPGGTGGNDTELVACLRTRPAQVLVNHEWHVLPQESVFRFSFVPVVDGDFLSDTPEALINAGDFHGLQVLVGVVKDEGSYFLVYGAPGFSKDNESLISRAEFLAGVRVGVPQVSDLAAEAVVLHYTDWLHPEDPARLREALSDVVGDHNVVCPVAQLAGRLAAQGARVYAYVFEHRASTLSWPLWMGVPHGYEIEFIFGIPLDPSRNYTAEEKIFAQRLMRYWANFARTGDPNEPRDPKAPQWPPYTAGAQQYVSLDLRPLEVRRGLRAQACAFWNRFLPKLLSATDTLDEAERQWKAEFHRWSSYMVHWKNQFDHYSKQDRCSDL

The IC50 is the point on the concentration scale where inhibition reaches its midpoint. For `O=S(=O)(/C=C/c1ccc(O)c(O)c1)Cc1ccc(C(F)(F)F)cc1` [Compound 3B, (E)-4-{2-[(4-trifluoromethylphenyl)mesyl]ethenyl}benzene-1,2-diol, reference compound], in the experiment on hippocampus GFAP, the “Positive cell number (astrocytes with GFAP positive expression)” value was determined as 118 ± 8. Also, the “Expression (Immunofluorescence intensity %)” value with substantia nigra p-α-s is on record as 236.55 ± 13.78%. In addition, the “Expression (pp38/GAPDH)” value in the experiment on midbrain pp38 stood at 1.18 ± 0.08. For the same molecule, the IC50 in experiment [1] (setting [2]) is over 100 µM. For the same molecule, the “Positive cell number (microglial cells with CD11b positive expression)” value with substantia nigra CD11b is listed as 44 ± 5.
As to `O=S(=O)(/C=C/c1ccc(O)c(O)c1)CCCc1ccccc1` [Compound 3C, (E)-4-{2-[(3-phenylpropyl)sulfonyl]ethenyl}benzene-1,2-diol, reference compound], the “Positive cell number (astrocytes with GFAP positive expression)” value in the experiment on hippocampus GFAP was 147 ± 4. Besides, the “Expression (Immunofluorescence intensity %)” value in the experiment with substantia nigra p-α-s is listed as 132.98 ± 7.78%. Further, the “Expression (pp38/GAPDH)” value in the experiment on midbrain pp38 came out at 0.85 ± 0.22. Moreover, in experiment [1] (setting [2]), the IC50 was over 100 µM. The “Positive cell number (microglial cells with CD11b positive expression)” value in the experiment with substantia nigra CD11b came to 70 ± 6.
Taken in the same sequence, the figures for `O=S(=O)(/C=C/c1ccc(O)c(O)c1)Cc1ccc(Cl)cc1` [Compound 3D, (E)-4-{2-[(4-chlorophenyl)mesyl]ethenyl}benzene-1,2-diol, reference compound] were 106 ± 6, 104.89 ± 7.56%, 1.00 ± 0.11, over 100 µM and 39 ± 4.
As to `CC(C)(C)c1ccc(CS(=O)(=O)/C=C/c2ccc(O)c(O)c2)cc1` [Compound 3G, (E)-4-{2-[(4-t-butylphenyl)mesyl]ethenyl}benzene-1,2-diol, reference compound], in the experiment on hippocampus GFAP, the “Positive cell number (astrocytes with GFAP positive expression)” value came out at 130 ± 6. In addition, the “Expression (Immunofluorescence intensity %)” value with substantia nigra p-α-s is recorded as 203.66 ± 8.37%. Further, the “Expression (pp38/GAPDH)” value in the experiment with midbrain pp38 was found to be 0.69 ± 0.22. Moreover, in experiment [1] (setting [2]), the IC50 was over 100 µM. Besides, the “Positive cell number (microglial cells with CD11b positive expression)” value in the experiment with substantia nigra CD11b is reported as 52 ± 5.
Take `CC(C)N(c1ccc(CCS(=O)(=O)/C=C/c2ccc(OC(=O)N(C)c3ccc(I)cc3)c(OCCOCc3ccccc3)c2)cc1)C(C)C` [Compound A1-3, (E)-2-(2-benzyloxyethoxy)-4-{2-[4-(N,N-diisopropylamino)phenylethylsulfonyl]ethenyl}phenyl-N-(4-iodophenyl)-N-methylcarbamate]: the “Positive cell number (astrocytes with GFAP positive expression)” value in the experiment with hippocampus GFAP is 55 ± 3. Also, in the experiment on substantia nigra p-α-s, the “Expression (Immunofluorescence intensity %)” value was 134.19 ± 11.28%. The “Expression (pp38/GAPDH)” value in the experiment with midbrain pp38 turned out to be 0.27 ± 0.08. The molecule also had an IC50 in experiment [1] of 25.2 ± 3.34 µM. For the same molecule, in the experiment with substantia nigra CD11b, the “Positive cell number (microglial cells with CD11b positive expression)” value stood at 38 ± 4.
With `CCN(CC)C(=O)Oc1ccc(/C=C/S(=O)(=O)Cc2ccc(C(F)(F)F)cc2)cc1OC(=O)N(CC)CC` [Compound B1-1, (E)-4-{2-[(4-trifluoromethylphenyl)mesyl]ethenyl}-1,2-phenylenebis(diethylcarbamate)], in the experiment with hippocampus GFAP, the “number of hippocampus astrocytes with GFAP positive expression compared with the styryl sulfone prototype compounds” value was “significantly lower” and the “Positive cell number (astrocytes with GFAP positive expression)” value is recorded as 64 ± 4. In addition, in the experiment on substantia nigra p-α-s, the “Expression (Immunofluorescence intensity %)” value amounted to 82.54 ± 9.34%. For the same molecule, the “Expression (pp38/GAPDH)” value in the experiment with midbrain pp38 is 0.37 ± 0.12. In experiment [1] (setting [2]), the IC50 amounted to 13.3 ± 2.85 µM. Further, in the experiment with substantia nigra CD11b, the “number of substantia nigra microglial cells with CD11b positive expression compared with the styryl sulfone prototype compounds” value was “significantly lower” and the “Positive cell number (microglial cells with CD11b positive expression)” value was found to be 32 ± 4.
As to `CCN(CC)C(=O)Oc1ccc(/C=C/S(=O)(=O)CCCc2ccccc2)cc1OC(=O)N(CC)CC` [Compound C1-1, (E)-4-[2-(3-phenylpropylsulfonyl)ethenyl]-1,2-phenylenebis(diethylcarbamate)], in the experiment on hippocampus GFAP, the “number of hippocampus astrocytes with GFAP positive expression compared with the styryl sulfone prototype compounds” value was “significantly lower” and the “Positive cell number (astrocytes with GFAP positive expression)” value was found to be 78 ± 3. Further, the “Expression (Immunofluorescence intensity %)” value with substantia nigra p-α-s turned out to be 123.59 ± 8.25%. The “Expression (pp38/GAPDH)” value with midbrain pp38 is given as 0.63 ± 0.06. In experiment [1] (setting [2]), the IC50 was 14.7 ± 3.51 µM. Moreover, in the experiment with substantia nigra CD11b, the “number of substantia nigra microglial cells with CD11b positive expression compared with the styryl sulfone prototype compounds” value is on record as “significantly lower” and the “Positive cell number (microglial cells with CD11b positive expression)” value is given as 27 ± 4.
Turning to `CCN(CC)C(=O)Oc1ccc(/C=C/S(=O)(=O)Cc2ccc(Cl)cc2)cc1OC(=O)N(CC)CC` [Compound D1-1, (E)-4-{2-[(4-chlorophenyl)mesyl]ethenyl}-1,2-phenylenebis(diethylcarbamate)], in the experiment with hippocampus GFAP, the “number of hippocampus astrocytes with GFAP positive expression compared with the styryl sulfone prototype compounds” value is given as “significantly lower” and the “Positive cell number (astrocytes with GFAP positive expression)” value is recorded as 58 ± 5. In addition, the “Expression (Immunofluorescence intensity %)” value in the experiment on substantia nigra p-α-s is 42.52 ± 5.43%. Moreover, the “Expression (pp38/GAPDH)” value in the experiment on midbrain pp38 came out at 0.50 ± 0.13. In addition, the IC50 in experiment [1] (setting [2]) worked out at 4.16 ± 1.07 µM. In the experiment on substantia nigra CD11b, the “number of substantia nigra microglial cells with CD11b positive expression compared with the styryl sulfone prototype compounds” value is listed as “significantly lower” and the “Positive cell number (microglial cells with CD11b positive expression)” value is on record as 15 ± 3.
As to `CC(=O)Oc1ccc(/C=C/S(=O)(=O)Cc2c(F)c(F)c(F)c(F)c2F)cc1OC(=O)NC(=O)c1ccc([N+](=O)[O-])c(C)c1` [Compound D5-4, (E)-2-[N-(3-methyl-4-nitrobenzoyl)carbamoyloxy]-4-{2-[(perfluorophenyl)mesyl]ethenyl}phenyl acetate], the “Positive cell number (astrocytes with GFAP positive expression)” value in the experiment with hippocampus GFAP came to 59 ± 3. Also, the “Expression (Immunofluorescence intensity %)” value in the experiment with substantia nigra p-α-s amounted to 186.19 ± 11.02%. In the experiment with midbrain pp38, the “Expression (pp38/GAPDH)” value is listed as 0.61 ± 0.07. In experiment [1] (setting [2]), the IC50 is 20.8 ± 3.12 µM. Further, the “Positive cell number (microglial cells with CD11b positive expression)” value with substantia nigra CD11b turned out to be 41 ± 3.
Take `CNC(=O)Oc1ccc(/C=C/S(=O)(=O)CC(Cl)c2ccc(Cl)c([N+](=O)[O-])c2)cc1O` (centres unmarked) [Compound E2-2, (E)-4-{2-[2-chloro-2-(4-chloro-3-nitrophenyl)ethylsulfonyl]ethenyl}-2-hydroxyphenyl-N-methylcarbamate]: the “Positive cell number (astrocytes with GFAP positive expression)” value with hippocampus GFAP is recorded as 50 ± 5. The “Expression (Immunofluorescence intensity %)” value in the experiment with substantia nigra p-α-s is given as 128.26 ± 11.62%. In the experiment on midbrain pp38, the “Expression (pp38/GAPDH)” value came out at 0.43 ± 0.06. In addition, the IC50 in experiment [1] amounted to 51.3 ± 3.94 µM. Further, the “Positive cell number (microglial cells with CD11b positive expression)” value in the experiment on substantia nigra CD11b was 40 ± 5.
